What was measured:
Assay type in all cases: physicochemical
[1] = Reduction of solvent necessary to dissolve solid UV-filter; conditions: for reduction of the cosmetic solvent necessary to dissolve BMDBM: with PG-UVB 1:1
[2] = Solubility of BMDBM/BEMT in 1:1 (w/w) mixture C12-15 alkyl benzoate/PG-UVB, stored 1 month at RT, no re-crystallization
[3] = Solubility in C12-15 alkyl benzoate: saturation of the solvent, content in the supernatant by HPLC; conditions: pure cosmetic solvent
[4] = C12-15 alkyl benzoate/PG-UVB 1:1 versus C12-15 alkyl benzoate

| Compound | reduction of the cosmetic solvent necessary to dissolve BMDBM ([1]; C12-15 alkyl benzoate) | reduction of the cosmetic solvent necessary to dissolve BMDBM ([1]; diisopropyl sebacate) | amount of 1:1 (w/w) mixture of PG-UVB and C12-15 alkyl benzoate necessary to dissolve 0.5 g BMDBM ([1]; with PG-UVB of example 1) | amount of 1:1 (w/w) mixture of PG-UVB and diisopropyl sebacate needed to dissolve 0.5 g BMDBM ([1]; with PG-UVB of example 1) | Δ solubility related to cosmetic solvent ([2]; C12-15 alkyl benzoate/PG-UVB 1:1) | Increase of solubility BMDBM/BEMT [2, 4] | Δ solubility [2, 4] | Solubility in C12-15 alkyl benzoate [3] |
| --- | --- | --- | --- | --- | --- | --- | --- | --- |
| butyl methoxydibenzoylmethane [BMDBM] | 75% | 65% | 1.5 g | 1.4 g | – | – | – | – |
| CCCCC(CC)COc1ccc(-c2nc(-c3ccc(OC)cc3)nc(-c3ccc(OCC(CC)CCCC)cc3O)n2)c(O)c1 (centres unmarked) [BEMT, bis-ethylhexyloxyphenol methoxyphenyl triazine] | – | – | – | – | +13.5 wt.-% | +54% | +7 wt.-% | 13 wt.-% |
